Read-outs that look alike come from different tables or passages of the source.
Experiments:
[1] = Solubility of resatorvid in solvents (sonication, visual observation); assay type: physicochemical
Method: To determine solubility of resatorvid in a liquid formulation, a variety of solvents were tested: phosphate buffered saline, NS, ethanol, and PEG400, all with resatorvid at a concentration of 0.1% w/v and the solutions were sonicated for 1 hour at room temperature.
In addition, a solution of 5% w/v resatorvid in EtOH 140 proof was prepared (1 mL of ETOH and 50 mg of resatorvid). The solution was not translucent and became opaque/cloudy and there was still drug undissolved floating around.
Solutions were made with w/v TAK242+PEG600 and 5% w/v TAK242+100% Acetone. All three solutions were sonicated at room temperature for 1 hour. […] As the solution began to adjust to ambient temperature it started to solidify into a white thick substance almost like lard.
Further experiments were conducted using glycerol as the solvent. 0.0504 g of TAK-242 was weighed out to make a 5.04% w/v solution in 1 mL of glycerol, USP grade. […]. The solution was then sonicated for 60 minutes at 37° C. […] Images were taken at each to document the outcome.
A 5% w/v solution of resatorvid (50mg) and PEG 400 USP (1 mL) was prepared.
(§1) Seven platforms were analyzed for compatibility with TAK-242. The platforms were DermaBASE cream (cream and lotion), PENcream (cream), PEG-400 solution, PG solution, 1% w/v Carbomer 934P resin gel at pH˜7, 2% w/v Sodium hyaluronate gel/serum and 20% w/v Pluronic F127 gel. Solubility of TAK-242 was determined at concentrations ranging from 0.1-5% w/v using PBS (pH=7.41), 0.9% normal saline (NS), HPLC grade ethanol, PEG-400 and PG as solvents. The following step was to test if TAK-242 could be directly incorporated into the platforms mentioned above via non-sterile compounding to determine if the drug would need to be pre-dissolved before incorporation. Determination of how much volume of PEG-400 or PG could be incorporated into the creams and gels without losing consistency while maintaining homogeneity was examined; 1 g of base (cream or gel) was weighed out and was compounded with PEG-400 or PG (500 μL-1000 μL). Drug was then dissolved in appropriate determined volume of compatible solvent and sonicated for 60 minutes, then it was prepared via non-sterile compounding technique and formulations were examined for physical appearance (consistency, homogeneity, visible precipitation, phase separation, compatibility). The only formulation that was different was the Pluronic F127 as everything was mixed in as a liquid at 4° C. and the solution would then solidify at room temperature […] to create the gel which was then mixed thoroughly until homogenous.

[2] = Direct incorporation of resatorvid powder into cream bases (solubility/compatibility); assay type: physicochemical; details: room temperature 30 minutes to 1 hour
Method: The solubility of the drug as powder was tested on both Dermabase cream as well as PENcream. […] It was a clear indication that the drug would have to be pre-dissolved in a solution before incorporating into the creams.
A variety of cream/lotion formulations were prepared. One gram of Dermabase cream and 0.1 gram of resatorvid were compounded together. […] One gram of PENcream was compounded with 0.1 grams of resatorvid. After compounding the mixture sat for 1 hour at room temp. […] PEG 400 USP and PEG 600 USP at volumes of 0.5 mL, 1 mL and 2 mL were used with 1 gram of cream base. […] PEG 600 USP changed the cream consistency to a lotion for each cream at added volumes 0.5 mL, 1 mL and 2 mL.
as §1

[3] = UV-Vis spectra of resatorvid solution in PEG400 on storage; assay type: physicochemical; details: 0.1% w/v in PEG400, 4 days at 25° C.
Description: The solvents that were used were PEG400, EtOH 140 proof, PBS pH 7.4, Acetonitrile, NS, and MeOH. PEG600 was not used as it was too thick. At a concentration of 0.1% w/v it was observed that resatorvid was soluble in PEG400, acetonitrile and EtOH 140 proof and HPLC grade MeOH. 0.01% w/v solutions were also made for some samples to show an acceptable UV-Vis spectra. Resatorvid was not soluble in NS or PBS pH 7.4.
A Molecular Devices® SpectraMax® M3 Multi-Mode Microplate Reader (Sunnyvale, CA, USA) was used to perform UV/Vis spectroscopy. The wavelength range was 190 through 290 nm. A 0.1% w/v solution of TAK-242 in HPLC grade methanol, PEG-400, HPLC grade ethanol, HPLC grade acetonitrile, PBS (pH=7.4) and 0.85% w/v normal saline were made and analyzed under UV visible spectroscopy on a 96-wellplate black clear bottom.

[4] = In vitro oil-water partitioning coefficient (Log-P), 1-octanol/PBS; assay type: physicochemical; details: for logP: 1-octanol/PBS; for partition coefficient (Log-P): range over pH 6.5, 7.1, 8.8
Method: TAK242 raw powder was weighed out (0.003 g) and placed in 2 dram ambered colored glass vials containing equal volumes (1.5 mL) of 1-octanol and PBS (1×, pH=7.4). Various solutions were made, and pH was adjusted and maintained at 6.5, 7.1, 8.8, adjustments were made using 0.1 M HCl solution and 0.1 M NaOH solution. […] The vials were rotated using a Barnstead/Thermolyne Labquake shaker (Dubuque, IA, USA) for 24 hours and then left undisturbed in a vertical position for an additional 24 hours for phase separation between the aqueous and non-aqueous layers. A sample of each layer was carefully withdrawn and then analyzed by a validated HPLC method as describe in the HPLC analysis section under methods.

[5] = tested on: human transformed keratinocytes (HaCaT); assay: In vitro cell dose-response (resazurin viability) in 2-D culture, HaCaT; assay type: cell-based; details: 72 h exposure
Method: (§2) The effects of raw TAK-242 powder on the viability of human representative human keratinocyte cell lines exposed to different concentrations were tested. HaCaT (a human transformed keratinocyte from histologically normal skin cell line) and NHEK (a primary normal epidermal keratinocyte cell line) were used as models of the human epidermis, which express keratinocytes in the stratum basale and then move up the final barrier layer of the skin, which is the stratum corneum. The HaCaT cells were grown in Dulbecco's modified Eagle's medium (DMEM), Optimized 1×, 10% (v/v) fetal bovine serum (FBS), and Pen-Strep (100 units/mL penicillin, 100 μg/mL) in a humidified incubator at 37° C. and 5% CO2. NHEK cells were grown NHEK- growth medium provided by MatTek (Ashland, MA, USA) in a humidified incubator at 37° C. and 5% CO2.
After confluence, HaCaT and NHEK cells were seeded in 96-black well plate at a concentration of 5,000 cells in 100 μL of media per well. After 48 hours, cells were then incubated for 48 h to allow attachment to the surface of the plates. Cells were then exposed to different concentrations of TAK-242. The drug solutions were prepared by dissolving raw TAK-242 powder in 5% v/v DMSO and DMEM media to make a solution at 1×. A volume of 100 μL of drug solution was added to each well. After 72 h of exposure and incubation at 37° C. and 5% CO2, 20 μL of 20 μM resazurin sodium salt were added to each well and incubated for 4 h. Fluorescence intensity of resofurin was detected at 544 nm (excitation) and 590 nm (emission) using the Molecular Devices® SpectraMax® M3 Multi-Mode Microplate Reader (Sunnyvale, CA, USA). The relative viability of the cells was calculated as followed by equation 1: […]

[6] = tested on: primary normal epidermal keratinocytes (NHEK); assay: In vitro cell dose-response (resazurin viability) in 2-D culture, NHEK; assay type: cell-based, human; details: 72 h exposure
Method: as §2
After confluence, HaCaT and NHEK cells were seeded in 96-black well plate at a concentration of 5,000 cells in 100 μL of media per well. After 48 hours, cells were then incubated for 48 h to allow attachment to the surface of the plates. Cells were then exposed to different concentrations of TAK-242. […] Fluorescence intensity of resofurin was detected at 544 nm (excitation) and 590 nm (emission) using the Molecular Devices® SpectraMax® M3 Multi-Mode Microplate Reader (Sunnyvale, CA, USA). The relative viability of the cells was calculated as followed by equation 1: […]

p-p38 signal in EpiDerms = assay: p-p38 signal after topical resatorvid with or without solar simulated light; assay type: cell-based, human; details: constitutive or UV-induced
[7] = cited from earlier work
[8] = cited from earlier work; remark: listed apart in the source
[9] = cited from earlier work; remark: listed apart in the source
[10] = tested on: UV-induced AP-1 activation; details: acetone solution of resatorvid, mouse epidermis; cited from earlier work
[11] = series of increasing concentrations

solubility ([1]; 0.1% w/v in EtOH 140 proof): soluble
solubility ([1]; 0.1% w/v in EtOH 140 proof, listed as TAK-242): completely dissolved
solubility ([1]; 0.1% w/v in HPLC grade MeOH): soluble
solubility ([1]; 0.1% w/v in NS (normal saline)): not soluble
solubility ([1]; 0.1% w/v in NS (normal saline), listed as TAK-242): failed to dissolve
solubility ([1]; 0.1% w/v in PBS pH 7.4): not soluble
solubility ([1]; 0.1% w/v in PBS pH 7.4, listed as TAK-242): failed to dissolve
solubility ([1]; 0.1% w/v in PEG400): soluble
solubility ([1]; 0.1% w/v in acetonitrile): soluble
solubility ([1]; 5% w/v in 100% acetone, sonicated at room temperature 1 hour): dissolved the drug completely
solubility ([1]; 5% w/v in EtOH 140 proof): only partially dissolved
solubility ([1]; 5% w/v in PEG 400 USP): no signs of undissolved drug
solubility ([1]; glycerol USP, 5.04%, 2.5%, 1.25% and 0.625% w/v, sonicated 60 minutes at 37° C.): did not dissolve
solubility ([1]; w/v in PEG600 (concentration not given), sonicated at room temperature 1 hour): dissolved the drug completely
solubility of drug powder in cream ([2]; Dermabase cream): unable to dissolve in the cream
solubility of drug powder in cream ([2]; Dermabase cream, listed as Resatorvid (TAK-242)): undissolved and incompatible with creams
solubility of drug powder in cream ([2]; PENcream): undissolved drug
solubility of drug powder in cream ([2]; PENcream, listed as Resatorvid (TAK-242)): undissolved and incompatible with creams
stability of drug in solution (UV-VIS spectra) [3]: no changes in the drug
logP ([4]; as quoted, conditions not stated, read-out: log P): 1.54
logP ([4]; pH 6.5, At 35° C., pH = 6.5, read-out: Experimental (Log P) Average ± SD): 1.65 ± 0.029
logP ([4]; pH 6.5, At Room temperature/ambient temperature, pH = 6.5, read-out: Experimental (Log P) Average ± SD): 1.58 ± 0.019
logP ([4]; pH 7.1, At 35° C., pH = 7.1, read-out: Experimental (Log P) Avg. Log-P ± SD): 1.68 ± 0.013
logP ([4]; pH 7.1, At Room temperature/ambient temperature, pH = 7.1, read-out: Experimental (Log P) Avg. Log-P ± SD): 1.54 ± 0.149
logP ([4]; pH 8.8, At 35° C., pH = 8.8, read-out: Experimental (Log P) Avg. Log-P ± SD): 0.94 ± 0.023
logP ([4]; pH 8.8, At Room temperature/ambient temperature, pH = 8.8, read-out: Experimental (Log P) Avg. Log-P ± SD): 0.88 ± 0.06
partition coefficient (Log-P) ([4]; at 35° C.): 0.94-1.68
partition coefficient (Log-P) ([4]; at 37° C.): 0.88-1.58
SMILES: CCOC(=O)C1=CCCC[C@H]1S(=O)(=O)Nc1ccc(F)cc1Cl [Resatorvid]
% cell viability ([5]; 1000 μM): ~70%
% cell viability ([5]; all concentrations except 1000 μM): ~100%
toxicity [5, 11]: did not show any significant toxicity
% cell viability ([6]; all concentrations): ~100%
toxicity [6, 11]: did not show any significant toxicity
p-p38 signal (p-p38 signal in EpiDerms): potently blocked
reported solubility ([7]; in DMSO): 10 mg/mL
reported solubility ([7]; in EtOH): 20 mg/mL
reported solubility ([7]; in H2O): sparingly soluble
reported Log P [8]: 2.53
experimentally determined pKa reported [9]: 8.0-8.1
UV-induced AP-1 activation [10]: blocked
